# ChEMBL document CHEMBL5608235, “Tricyclic Benzo[1,3]oxazinyloxazolidinones as Potent Antibacterial Agents against Drug-Resistant Pathogens” (J Med Chem, 2024)
# What was measured:
# [1] = Drug concentration in BALB/c mouse plasma at 10 mg/kg,po administration measured within 15 mins by LC-MS/MS analysis; format: ADME, organism-based
# [2] = AUC (0 to t) in BALB/c mouse at 1 mg/kg,iv administration measured upto 24 hrs by LC-MS/MS analysis; format: ADME, organism-based; details: in vivo
# [3] = tested on: Staphylococcus aureus; assay: Antibacterial activity against vancomycin intermediate Staphylococcus aureus ATCC700699 assessed as inhibition of bacterial growth incubated for 7 days by alamar blue assay; format: functional; details: ATCC700699, 168 h, time 7 day
# [4] = Free AUC in BALB/c mouse at 10 mg/kg,po administration measured upto 24 hrs by LC-MS/MS analysis; format: ADME, organism-based; details: in vivo
# [5] = Drug concentration in BALB/c mouse plasma at 10 mg/kg,po administration measured after 24 hrs by LC-MS/MS analysis; format: ADME, organism-based; details: in vivo
# [6] = Metabolic stability in human liver microsomes assessed as compound remaining at 10 uM incubated for 60 mins in absence of NADPH by LC-MS/MS analysis; format: ADME, Microsome; details: read-out: Stability
# [7] = Oral bioavailability in BALB/c mouse at 10 mg/kg administration measured upto 24 hrs by LC-MS/MS analysis; format: ADME, organism-based; details: in vivo, po, 10 mg/kg, 24 h
# [8] = tested on: Staphylococcus aureus; assay: Antibacterial activity against methicillin resistant Staphylococcus aureus clinical isolate 20-1 assessed as inhibition of bacterial growth incubated for 7 days by alamar blue assay; format: functional; details: clinical isolate 20-1, 168 h, time 7 day
# [9] = tested on: Staphylococcus epidermidis; assay: Antibacterial activity against methicillin resistant Staphylococcus epidermidis clinical isolate 20-1 assessed as inhibition of bacterial growth incubated for 7 days by alamar blue assay; format: functional; details: clinical isolate 20-1, 168 h, time 7 day
# [10] = tested on: Staphylococcus aureus; assay: Antibacterial activity against Linezolid resistant Staphylococcus aureus clinical isolate 20-2 assessed as inhibition of bacterial growth incubated for 7 days by alamar blue assay; format: functional; details: clinical isolate 20-2, 168 h, time 7 day
# [11] = tested on: Enterococcus faecalis; assay: Antibacterial activity against Linezolid resistant Enterococcus faecalis clinical isolate 20-2 assessed as inhibition of bacterial growth incubated for 7 days by alamar blue assay; format: functional; details: clinical isolate 20-2, 168 h, time 7 day
# [12] = Terminal half life in BALB/c mouse at 1 mg/kg,iv administration measured upto 24 hrs by LC-MS/MS analysis; format: ADME, organism-based; details: in vivo, read-out: beta t1/2 (converted)
# [13] = Metabolic stability in ICR mouse liver microsomes assessed as compound remaining at 10 uM incubated for 60 mins in absence of NADPH by LC-MS/MS analysis; format: ADME, Microsome; details: read-out: Stability
# [14] = Plasma protein binding in BALB/c mouse at 1 mg/kg,iv administration measured upto 24 hrs by LC-MS/MS analysis; format: ADME, organism-based; details: read-out: PPB (converted)
# [15] = MRT (0 to infinity) in BALB/c mouse at 10 mg/kg,po administration measured upto 24 hrs by LC-MS/MS analysis; format: ADME, organism-based; details: in vivo
# [16] = Metabolic stability in human liver microsomes assessed as substrate remaining at 10 uM incubated for 60 mins in presence of NADPH by LC-MS/MS analysis; format: ADME, Microsome; details: read-out: Stability
# [17] = Cmax in BALB/c mouse at 10 mg/kg,po administration measured upto 24 hrs by LC-MS/MS analysis; format: ADME, organism-based; details: in vivo
# [18] = tested on: Staphylococcus epidermidis; assay: Antibacterial activity against methicillin resistant Staphylococcus epidermidis clinical isolate 20-2 assessed as inhibition of bacterial growth incubated for 7 days by alamar blue assay; format: functional; details: clinical isolate 20-2, 168 h, time 7 day
# [19] = AUC (0 to infinity) in BALB/c mouse at 10 mg/kg,po administration measured upto 24 hrs by LC-MS/MS analysis; format: ADME, organism-based; details: in vivo, po, 10 mg/kg, 24 h
# [20] = MRT (0 to t) in BALB/c mouse at 1 mg/kg,iv administration measured upto 24 hrs by LC-MS/MS analysis; format: ADME, organism-based; details: in vivo
# [21] = Clearance in BALB/c mouse at 1 mg/kg,iv administration measured upto 24 hrs by LC-MS/MS analysis; format: ADME, organism-based; details: in vivo
# [22] = Volume of distribution in BALB/c mouse at 1 mg/kg,iv administration measured upto 24 hrs by LC-MS/MS analysis; format: ADME, organism-based; details: in vivo
# [23] = Terminal half life in BALB/c mouse at 10 mg/kg,po administration measured upto 24 hrs by LC-MS/MS analysis; format: ADME, organism-based; details: in vivo, read-out: beta t1/2 (converted)
# [24] = Cmax in BALB/c mouse at 1 mg/kg,iv administration measured upto 24 hrs by LC-MS/MS analysis; format: ADME, organism-based; details: in vivo
# [25] = tested on: Enterococcus faecalis; assay: Antibacterial activity against Enterococcus faecalis ATCC29212 assessed as inhibition of bacterial growth incubated for 18 hrs by microdilution broth assay; format: functional
# [26] = tested on: Enterococcus faecalis; assay: Antibacterial activity against Linezolid resistant Enterococcus faecalis clinical isolate 20-1 assessed as inhibition of bacterial growth incubated for 7 days by alamar blue assay; format: functional; details: clinical isolate 20-1, 168 h, time 7 day
# [27] = Metabolic stability in ICR mouse liver microsomes assessed as substrate remaining at 10 uM incubated for 60 mins in presence of NADPH by LC-MS/MS analysis; format: ADME, Microsome; details: read-out: Stability
# [28] = Tmax in BALB/c mouse at 10 mg/kg,po administration measured upto 24 hrs by LC-MS/MS analysis; format: ADME, organism-based; details: in vivo
# [29] = tested on: Staphylococcus epidermidis; assay: Antibacterial activity against Staphylococcus epidermidis ATCC12228 assessed as inhibition of bacterial growth incubated for 18 hrs by microdilution broth assay; format: functional
# [30] = AUC (0 to infinity) in BALB/c mouse at 1 mg/kg,iv administration measured upto 24 hrs by LC-MS/MS analysis; format: ADME, organism-based; details: in vivo, iv, 1 mg/kg, 24 h
# [31] = tested on: Staphylococcus aureus; assay: Antibacterial activity against Linezolid resistant Staphylococcus aureus clinical isolate 20-1 assessed as inhibition of bacterial growth incubated for 7 days by alamar blue assay; format: functional; details: clinical isolate 20-1, 168 h, time 7 day
# [32] = tested on: Staphylococcus aureus; assay: Antibacterial activity against Staphylococcus aureus ATCC25923 assessed as inhibition of bacterial growth incubated for 18 hrs by microdilution broth assay; format: functional
# [33] = tested on: Enterococcus; assay: Antibacterial activity against vancomycin resistant Enterococcus clinical isolate 20-1 assessed as inhibition of bacterial growth incubated for 7 days by alamar blue assay; format: functional; details: clinical isolate 20-1, 168 h, time 7 day
# [34] = MRT (0 to t) in BALB/c mouse at 10 mg/kg,po administration measured upto 24 hrs by LC-MS/MS analysis; format: ADME, organism-based; details: in vivo
# [35] = MRT (0 to infinity) in BALB/c mouse at 1 mg/kg,iv administration measured upto 24 hrs by LC-MS/MS analysis; format: ADME, organism-based; details: in vivo
# [36] = AUC (0 to t) in BALB/c mouse at 10 mg/kg,po administration measured upto 24 hrs by LC-MS/MS analysis; format: ADME, organism-based; details: in vivo
# [37] = Cytotoxicity against African green monkey Vero cells incubated for 48 hrs by MTT assay; format: toxicity, cell-based, Chlorocebus sabaeus
# [38] = tested on: Mycobacterium tuberculosis; assay: Antibacterial activity against Mycobacterium tuberculosis H37Rv assessed as inhibition of bacterial growth incubated for 7 days by alamar blue assay; format: functional; details: 168 h, time 7 day
# [39] = tested on: Staphylococcus aureus; assay: Antibacterial activity against methicillin resistant Staphylococcus aureus clinical isolate 20-2 assessed as inhibition of bacterial growth incubated for 7 days by alamar blue assay; format: functional; details: clinical isolate 20-2, 168 h, time 7 day
# [40] = tested on: Bacillus subtilis; assay: Antibacterial activity against Bacillus subtilis ATCC6633 assessed as inhibition of bacterial growth incubated for 18 hrs by microdilution broth assay; format: functional
smiles,measurement,setting,value
COC(=O)NC[C@@H]1OC(=O)N2Cc3cc(-c4ccc(C#N)cc4)c(F)cc3O[C@@H]12,concentration at 0.25 h,[1],1000 ng/mL
same,AUC(0-t) at 24 h,[2],6810 ng·h/mL
same,MIC,[3],0.5 µg/mL
same,fAUC,[4],9450 ng·h/mL
same,Drug uptake,[5],> 60%
same,"remaining at 1 h, 10 µM",[6],108%
same,F,[7],79.8%
same,MIC,[8],0.5 µg/mL
same,MIC,[9],0.125 µg/mL
same,MIC,[10],8 µg/mL
same,MIC,[11],2 µg/mL
same,half-life,[12],3.9 h
same,"remaining at 1 h, 10 µM",[13],112%
same,fraction unbound at 24 h,[14],0.174
same,MRT inf,[15],70.9 h
same,"remaining at 1 h, 10 µM",[16],113%
same,Cmax,[17],2790 ng/mL
same,MIC,[18],0.125 µg/mL
same,AUC,[19],188361 ng·h/mL
same,MRT last at 24 h,[20],8.1 h
same,clearance,[21],2.42 mL/min/kg
same,Vd,[22],0.818 L/kg
same,half-life,[23],49.3 h
same,Cmax,[24],514 ng/mL
same,MIC,[25],0.25 µg/mL
same,MIC,[26],2 µg/mL
same,"remaining at 1 h, 10 µM",[27],114%
same,Tmax,[28],4 h
same,MIC,[29],0.032 µg/mL
same,AUC,[30],6893 ng·h/mL
same,MIC,[31],8 µg/mL
same,MIC,[32],2 µg/mL
same,MIC,[33],0.5 µg/mL
same,MRT last at 24 h,[34],11.3 h
same,MRT inf,[35],8.4 h
same,AUC(0-t) at 24 h,[36],54300 ng·h/mL
same,IC50 at 48 h,[37],> 64 µg/mL
same,MIC,[38],0.73 µg/mL
same,MIC,[39],0.5 µg/mL
same,MIC,[40],0.063 µg/mL
